Test systems include PC-3 prostate; ACHN renal; MCF7 breast; SF-268 CNS; A498 renal; UACC-62 melanoma; HOP-62 NSCLC; NCI-H522 lung; SW-620 colon; DU-145 prostate.
Common to all, as to test: NCI-60 cell line screen, 48 h

Several values for one entry are separate records, joined by “and”; a condition that tells them apart may be missing. Equal entries are not always repeated.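 Results reflect a 48-hour exposure of cells in 96-well plates to compound at five concentrations. GI50 is the concentration that inhibits growth by half. TGI: total growth inhibition.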 Some results are limits rather than exact numbers.

For `Cc1ccccc1NC(=O)c1sc2nc3c(cc2c1N)C(=O)CCC3`, the GI50 in the assay with PC-3 prostate was 3.13 µM; in the assay on ACHN renal, 15.8 µM; in the assay on MCF7 breast, 1.58 µM; with SF-268 CNS, 8.51 µM; in the assay with A498 renal it was 1.16 µM; in the assay with UACC-62 melanoma it was 0.999 µM. Moreover, the GI50 was 7.28 µM in the assay with HOP-62 NSCLC, 0.896 µM in the assay with NCI-H522 lung, 1.83 µM in the assay with SW-620 colon and 2.7 µM with DU-145 prostate. Also, the TGI was above 100 µM with PC-3 prostate; above 100 µM in the assay on ACHN renal; above 100 µM with MCF7 breast; above 100 µM in the assay on SF-268 CNS; 4.65 µM in the assay on A498 renal; above 100 µM in the assay with UACC-62 melanoma. The TGI is above 100 µM with HOP-62 NSCLC, 3.5 µM with NCI-H522 lung, above 100 µM with SW-620 colon and 8.41 µM in the assay with DU-145 prostate.

Regarding `CCCCc1nc2cc(/C=C/C(=O)NO)ccc2n1CCN(CC)CC`, the GI50 is 0.327 µM in the assay on PC-3 prostate; 0.285 µM in the assay with ACHN renal; 0.202 µM in the assay with MCF7 breast; 0.552 µM with SF-268 CNS; 0.194 µM in the assay on A498 renal; 0.188 µM with UACC-62 melanoma. Besides, the GI50 in the assay on HOP-62 NSCLC is 0.322 µM; in the assay with NCI-H522 lung, 0.0802 µM; in the assay with SW-620 colon it was 0.228 µM; in the assay with DU-145 prostate it was 0.302 µM. Also, the TGI with PC-3 prostate was 16.2 µM; in the assay on ACHN renal, 1.44 µM; with MCF7 breast, above 20.3 µM; in the assay on SF-268 CNS, 7.55 µM; in the assay with A498 renal, 0.658 µM; with UACC-62 melanoma, 0.743 µM. The TGI turned out to be 11.6 µM in the assay on HOP-62 NSCLC, 0.52 µM in the assay on NCI-H522 lung, 3.32 µM in the assay with SW-620 colon and 4.64 µM in the assay on DU-145 prostate.

With `CC(C)(CCC(C)(C)c1ccccc1)c1ccccc1`, the TGI in the assay on PC-3 prostate is above 100 µM; in the assay with ACHN renal, 31.7 µM; in the assay with MCF7 breast it was 32.8 µM; in the assay on SF-268 CNS it was 33.3 µM; in the assay on A498 renal, 33.2 µM; in the assay on UACC-62 melanoma, 41.4 µM. The TGI in the assay with HOP-62 NSCLC came to 35.4 µM; in the assay with NCI-H522 lung, 29.9 µM; in the assay on SW-620 colon, 35.2 µM; in the assay with DU-145 prostate it was 38.5 µM.

Turning to `C=CCNc1cccc2c1C(=O)c1ccccc1C2(O)CC=C` (configuration not stated), the GI50 was 26.6 µM in the assay on PC-3 prostate; 28.5 µM in the assay on ACHN renal; 66.7 µM in the assay on MCF7 breast; 62.7 µM in the assay on SF-268 CNS; 21.8 µM in the assay on A498 renal; 10.6 µM with UACC-62 melanoma. For the same compound, the GI50 in the assay with HOP-62 NSCLC was 24.2 µM; in the assay on NCI-H522 lung it was 18.4 µM; in the assay with SW-620 colon, 22.2 µM; in the assay with DU-145 prostate, 24.9 µM. For the same compound, the TGI with PC-3 prostate was 73.8 µM; in the assay on ACHN renal it was 65.3 µM; in the assay on MCF7 breast, above 100 µM; in the assay on SF-268 CNS it was above 100 µM; in the assay on A498 renal, 47.8 µM; with UACC-62 melanoma it was 24.4 µM. In addition, the TGI with HOP-62 NSCLC came to 61.2 µM; in the assay with NCI-H522 lung it was 51.6 µM; in the assay on SW-620 colon it was 55.1 µM; with DU-145 prostate, 63 µM.

With `NCC(=O)CCC(=O)O`, the GI50 in the assay with PC-3 prostate, in the assay on ACHN renal, in the assay with MCF7 breast, with SF-268 CNS, in the assay with A498 renal and with UACC-62 melanoma was above 100 µM in each case. For the same compound, the GI50 in the assay with HOP-62 NSCLC, in the assay with NCI-H522 lung, with SW-620 colon and in the assay with DU-145 prostate was above 100 µM each time. Besides, the TGI with PC-3 prostate, with ACHN renal, with MCF7 breast, in the assay on SF-268 CNS, in the assay on A498 renal and in the assay with UACC-62 melanoma was above 100 µM in each case. Besides, the TGI in the assay on HOP-62 NSCLC, in the assay on NCI-H522 lung, in the assay with SW-620 colon and with DU-145 prostate was above 100 µM each time.

For `Nc1c(O)c(S(=O)(=O)O)c(O)c2c1C(=O)c1ccccc1C2=O`, the GI50 in the assay with PC-3 prostate is 2.32 µM; with ACHN renal it was 2.43 µM; in the assay on MCF7 breast, 2.5 µM; with SF-268 CNS, 3.44 µM; in the assay on A498 renal, 2.33 µM; with UACC-62 melanoma it was 3.21 µM. The GI50 in the assay on HOP-62 NSCLC was 2.92 µM; in the assay on NCI-H522 lung, 2.68 µM; in the assay on SW-620 colon it was 3.24 µM; in the assay with DU-145 prostate it was 3.8 µM. Moreover, the TGI was 7.87 µM in the assay on PC-3 prostate; 6.8 µM in the assay on ACHN renal; 8.13 µM with MCF7 breast; above 100 µM in the assay with SF-268 CNS; 7.53 µM in the assay on A498 renal; 65.6 µM in the assay on UACC-62 melanoma. For the same compound, the TGI in the assay on HOP-62 NSCLC was above 100 µM; in the assay on NCI-H522 lung, 9.17 µM; with SW-620 colon, above 100 µM; in the assay on DU-145 prostate, above 100 µM.

As to `COc1ccc(Cn2cc(Cn3c(=O)c(-c4nc5ccccc5[nH]4)cc4ccccc43)nn2)c(OC)c1OC`, the GI50 with PC-3 prostate was 0.313 µM; in the assay with ACHN renal, 0.476 µM and 0.68 µM; in the assay on MCF7 breast, 0.0789 µM and 0.0495 µM; in the assay with SF-268 CNS, 0.55 µM and 0.477 µM; in the assay with A498 renal, 0.118 µM; in the assay with UACC-62 melanoma it was 0.672 µM. Further, the GI50 with HOP-62 NSCLC is 0.179 µM and 0.525 µM; in the assay with NCI-H522 lung, 0.148 µM and 0.176 µM; in the assay on SW-620 colon it was 0.223 µM and 0.293 µM; with DU-145 prostate it was 0.22 µM. The TGI was above 100 µM in the assay with PC-3 prostate; 1.67 µM and 4.17 µM in the assay with ACHN renal; 0.607 µM in the assay with A498 renal; 5.42 µM in the assay with UACC-62 melanoma; 0.938 µM and 3.87 µM in the assay on HOP-62 NSCLC; 50 µM and > 100 µM with SW-620 colon. The TGI in the assay on DU-145 prostate amounted to 0.769 µM.

Take `CC1(C)CC[C@]2(C(=O)O)CC[C@]3(C)[C@H](CC[C@@H]4[C@@]5(C)CCC(=O)C(C)(C)[C@@H]5CC[C@]43C)[C@H]2[C@H]1OC(=O)C(F)(F)F`: the GI50 was 3.98 µM in the assay on PC-3 prostate; 13.3 µM in the assay with ACHN renal; 5.02 µM with MCF7 breast; 15.3 µM in the assay with SF-268 CNS; 15.7 µM in the assay on A498 renal; 6.66 µM in the assay with UACC-62 melanoma. Moreover, the GI50 in the assay on HOP-62 NSCLC is 13.2 µM; with NCI-H522 lung, 12.6 µM; in the assay with SW-620 colon, 11.6 µM; in the assay on DU-145 prostate, 14.1 µM. Besides, the TGI in the assay on PC-3 prostate worked out at 17.9 µM; in the assay on ACHN renal, 26.1 µM; in the assay on MCF7 breast it was 25.4 µM; in the assay on SF-268 CNS it was 33.6 µM; with A498 renal, 30.9 µM; with UACC-62 melanoma, 20.3 µM. The TGI was 27.8 µM in the assay on HOP-62 NSCLC, 29.1 µM in the assay with NCI-H522 lung, 28.1 µM with SW-620 colon and 34 µM in the assay with DU-145 prostate.

The values are drawn from PubChem BioAssay (NCI).
